From DBAASP
Converted amounts (≈) assume the structure as drawn. “And” between values parts separate entries of the source, which are not always exact repeats. Identical values can stand only once. One block for each compound: values may come before it.

Assays:
Assay in all cases: ≥ marks a high value that may be exact or a test limit, other limits are often not marked, values filed in µg/mL are converted to µM
[1] = system: Bacillus subtilis ATCC 23857
[2] = system: Bacillus subtilis 168
[3] = system: Staphylococcus aureus ATCC 25923
[4] = system: Pseudomonas aeruginosa ATCC 27853
[5] = system: Staphylococcus aureus RN4220
[6] = system: Saccharomyces cerevisiae BY4741
[7] = system: Escherichia coli 780
[8] = system: Staphylococcus aureus 725
[9] = system: Escherichia coli 850
[10] = system: Escherichia coli ATCC 25922
[11] = system: Acinetobacter baumannii ATCC 19606
[12] = system: Escherichia coli K-12
[13] = system: Staphylococcus aureus 936
[14] = system: Klebsiella pneumoniae ATCC 700603
[15] = system: Candida albicans CA14
[16] = system: Enterococcus faecalis ATCC 29212
[17] = system: Pseudomonas aeruginosa 2760
[18] = system: Acinetobacter baumannii
[19] = system: Aspergillus fumigatus IP1025-70
[20] = system: Saccharomyces cerevisiae IP118079
[21] = system: Nocardia brasiliensis IP16-80
[22] = system: Aeromonas caviae IP67-16T
[23] = system: Cryptococcus neoformans IP960-67
[24] = system: Trichophyton simii IP1063-74
[25] = system: Enterococcus faecalis IP103214
[26] = system: Candida albicans IP884-65
[27] = system: Aspergillus niger IP218-53
[28] = system: Staphylococcus aureus IP76-25
[29] = system: Escherichia coli IP76-24
[30] = system: Aeromonas hydrophila
[31] = system: Staphylococcus aureus
[32] = system: Candida albicans
[33] = system: Bacillus subtilis
[34] = system: Pseudomonas aeruginosa
[35] = system: Edwardsiella tarda
[36] = system: Escherichia coli
[37] = system: Staphylococcus epidermidis KCTC 1917
[38] = system: Salmonella enterica subsp. enterica serovar Typhimurium ATCC 14028
[39] = system: Bacillus megaterium Bm11
[40] = system: Escherichia coli D21
[41] = system: Escherichia coli KCTC 1682
[42] = system: Bacillus subtilis KCTC 3068
[43] = system: Serratia marcescens ATCC 8100
[44] = system: Cryptococcus neoformans
[45] = system: Serratia marcescens
[46] = system: Staphylococcus aureus Cowan 1
[47] = system: Escherichia coli ML-35
[48] = system: Staphylococcus epidermidis ATCC 35984
[49] = system: Staphylococcus aureus KCTC 1621
[50] = system: Salmonella typhimurium KCTC 1926
[51] = system: Pseudomonas aeruginosa KCTC 1637
[52] = system: Escherichia coli O18:K1:H7 Bort
[53] = system: Streptococcus agalactiae
[54] = system: Staphylococcus epidermidis ATCC 12228
[55] = system: Enterococcus faecium
[56] = system: Escherichia coli W160-37

Compound: CC[C@H](C)[C@H](NC(=O)CNC(=O)[C@H](CCCCN)NC(=O)[C@H](CC(C)C)NC(=O)[C@H](CCSC)NC(=O)[C@H](CC(N)=O)NC(=O)[C@H](CCCCN)NC(=O)[C@H](Cc1c[nH]c2ccccc12)NC(=O)[C@H](CC(C)C)NC(=O)[C@H](C)N)C(N)=O [ALWKNMLKGI]
- MIC [19]: ≥ 150 µM
- MIC [20]: ≥ 50 µM
- MIC [21]: ≥ 150 µM
- MIC [22]: 7 µM (≈ 8.21 µg/mL)
- MIC [23]: 25 µM (≈ 29.3 µg/mL)
- MIC [24]: ≥ 150 µM
- MIC [25]: 7 µM (≈ 8.21 µg/mL)
- MIC [26]: ≥ 150 µM
- MIC [27]: ≥ 150 µM
- MIC [28]: ≥ 150 µM
- MIC [29]: 14 µM (≈ 16.4 µg/mL)

Compound: CC[C@H](C)[C@H](NC(=O)[C@H](CC(C)C)NC(=O)CNC(=O)[C@H](Cc1cnc[nH]1)NC(=O)[C@@H](NC(=O)[C@H](Cc1cnc[nH]1)NC(=O)[C@H](CCCCN)NC(=O)CNC(=O)[C@@H](NC(=O)[C@H](CO)NC(=O)[C@H](Cc1ccccc1)NC(=O)[C@H](CC(C)C)NC(=O)CNC(=O)CNC(=O)[C@@H](NC(=O)[C@@H](NC(=O)[C@H](Cc1cnc[nH]1)NC(=O)[C@H](Cc1cnc[nH]1)NC(=O)[C@@H](NC(=O)[C@@H](N)Cc1ccccc1)[C@@H](C)CC)[C@@H](C)CC)[C@@H](C)CC)C(C)C)[C@@H](C)CC)C(=O)N[C@@H](Cc1cnc[nH]1)C(=O)NCC(=O)N[C@@H](Cc1cnc[nH]1)C(=O)O [FIHHIIGGLFSVGKHIHGLIHGH]
- MIC [30]: ≥ 160 µM
- MIC [31]: 5 µM (≈ 12.6 µg/mL)
- MIC [32]: 20 µM (≈ 50.5 µg/mL)
- MIC [33]: 3 µM (≈ 7.58 µg/mL)
- MIC [34]: 35 µM (≈ 88.4 µg/mL)
- MIC [35]: ≥ 160 µM
- MIC [36]: 6.7 µM (≈ 16.9 µg/mL)

Now from value to compound:

- MIC [1]: 3.67 µM (≈ 8 µg/mL)
- MIC [2]: 10 µM (≈ 21.8 µg/mL)
- MIC [3]: 7.33 µM (≈ 16 µg/mL)
- MIC [4]: 14.7 µM (≈ 32 µg/mL)
- MIC [5]: 4 µM (≈ 8.73 µg/mL)
- MIC [6]: 8 µM (≈ 17.5 µg/mL)
- MIC [7]: 7.33 µM (≈ 16 µg/mL)
- MIC [8]: 7.33 µM (≈ 16 µg/mL)
- MIC [9]: 7.33 µM (≈ 16 µg/mL)
- MIC [10]: 7.33 µM (≈ 16 µg/mL)
- MIC [11]: 3.67 µM (≈ 8 µg/mL)
- MIC [12]: 10 µM (≈ 21.8 µg/mL)
- MIC [13]: 7.33 µM (≈ 16 µg/mL)
- MIC [14]: 14.7 µM (≈ 32 µg/mL)
- MIC [15]: 4 µM (≈ 8.73 µg/mL)
- MIC [16]: 14.7 µM (≈ 32 µg/mL)
- MIC [17]: 7.33 µM (≈ 16 µg/mL)
- MIC [18]: 3.67 µM (≈ 8 µg/mL)
Compound: CC[C@H](C)[C@H](NC(=O)[C@H](CCCCN)NC(=O)[C@H](CCCCN)NC(=O)[C@H](C)NC(=O)[C@H](CC(C)C)NC(=O)[C@H](C)NC(=O)[C@H](C)NC(=O)[C@H](CC(C)C)NC(=O)[C@H](C)NC(=O)[C@H](CCCCN)NC(=O)[C@H](CC(C)C)NC(=O)[C@H](CC(N)=O)NC(=O)[C@@H](NC(=O)[C@H](CCCCN)NC(=O)CNC(=O)[C@H](CC(C)C)NC(=O)[C@H](CC(C)C)NC(=O)[C@H](Cc1ccc(O)cc1)NC(=O)CNC(=O)[C@H](C)N)[C@@H](C)CC)C(=O)N[C@@H](CC(C)C)C(=O)O [AGYLLGKINLKALAALAKKIL]

- MIC [37]: 4 µM (≈ 9.37 µg/mL)
- MIC [38]: 4 µM (≈ 9.37 µg/mL)
- MIC [3]: 2 µM and 4 µM
- MIC [4]: 2 µM (≈ 4.68 µg/mL)
- MIC [39]: 2 µM (≈ 4.68 µg/mL)
- MIC [40]: 4 µM (≈ 9.37 µg/mL)
- MIC [41]: 4 µM and 2.83 µM
- MIC [42]: 4 µM (≈ 9.37 µg/mL)
- MIC [31]: 4 µM (≈ 9.37 µg/mL)
- MIC [43]: 2 µM (≈ 4.68 µg/mL)
- MIC [44]: 4 µM (≈ 9.37 µg/mL)
- MIC [45]: 4 µM (≈ 9.37 µg/mL)
- MIC [10]: 2 µM (≈ 4.68 µg/mL)
- MIC [32]: 16 µM (≈ 37.5 µg/mL)
- MIC [46]: 2 µM (≈ 4.68 µg/mL)
- MIC [47]: 4 µM (≈ 9.37 µg/mL)
- MIC [48]: 2 µM (≈ 4.68 µg/mL)
- MIC [49]: 4 µM and 2.83 µM
- MIC [50]: 2 µM (≈ 4.68 µg/mL)
- MIC [51]: 4 µM (≈ 9.37 µg/mL)
- MIC [52]: 8 µM (≈ 18.7 µg/mL)
- MIC [53]: 1 µM (≈ 2.34 µg/mL)
- MIC [54]: 1 µM (≈ 2.34 µg/mL)
- MIC [55]: 8 µM (≈ 18.7 µg/mL)
Compound: CC(C)C[C@H](NC(=O)[C@H](CCCCN)NC(=O)[C@H](CCCCN)NC(=O)[C@H](Cc1ccccc1)NC(=O)[C@H](CC(C)C)NC(=O)[C@H](CCCCN)NC(=O)[C@H](CCCCN)NC(=O)[C@H](Cc1ccccc1)NC(=O)[C@H](CCCCN)NC(=O)[C@H](CCCCN)NC(=O)[C@H](CCCN=C(N)N)NC(=O)[C@H](Cc1ccccc1)NC(=O)[C@H](CCCN=C(N)N)NC(=O)[C@H](CCCCN)NC(=O)[C@H](Cc1ccccc1)NC(=O)[C@H](CCCN=C(N)N)NC(=O)CN)C(=O)N[C@@H](CO)C(N)=O [GRFKRFRKKFKKLFKKLS]

- MIC [56]: 22 µM (≈ 48.9 µg/mL)
Compound: CC[C@H](C)[C@H](NC(=O)[C@H](CC(N)=O)NC(=O)[C@@H](NC(=O)[C@@H](NC(=O)[C@H](CCCCN)NC(=O)[C@H](CCC(N)=O)NC(=O)[C@H](CCC(N)=O)NC(=O)[C@H](C)NC(=O)[C@H](CCC(=O)O)NC(=O)[C@H](CCC(=O)O)NC(=O)[C@@H](NC(=O)[C@H](CC(=O)O)NC(=O)[C@H](CCCCN)NC(=O)[C@H](CC(C)C)NC(C)=O)C(C)C)[C@@H](C)CC)[C@@H](C)CC)C(=O)N[C@H](C(=O)N[C@@H](CCCN=C(N)N)C(=O)N[C@@H](CCCN=C(N)N)C(=O)N[C@@H](CC(C)C)C(N)=O)[C@@H](C)CC [LKDVEEAQQKIINIIRRL]
